According to the supplement of paper PMC10627819:

Key:
S. aureus DSM 20231 [1] = test: fitness (endpoint OD595 vs no drug) (fraction); higher = more growth
Procedure, shortened: (§1)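 Each well of a 384-well plate received 30 µl of culture at OD595 0.01, or 55 µl for S. pneumoniae. TSB, LB Lennox or CY served as media at 37 °C. OD595 was taken every 30 min for 14 h and corrected by subtracting the first reading. Fitness is the optical density at stationary-phase entry divided by the robust mean of no-drug controls, capped at 1.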

S. pneumoniae D39V [2] = test: as above
Procedure, shortened: as §1

S. aureus Newman [3] = test: as above
Procedure, shortened: as §1

B. subtilis 168 [4] = test: as above
Procedure, shortened: as §1

S. aureus DSM 20231 [5] = test: Bliss interaction score (quartile over a dose matrix) (fitness difference); higher = more antagonism (negative = synergy)
Procedure, shortened: (§2)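 At entry into stationary phase, OD595 was recorded and divided by the robust mean of the no-drug wells on that plate, with any value above 1 set to 1. This gives the fitness measure used throughout. Single-drug fitness was inferred from combination data, and the Bliss score, observed minus product-expected fitness, is shown as quartiles across technical, biological and donor/recipient replicates.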

S. pneumoniae D39V [6] = test: as above
Procedure, shortened: as §2

S. aureus Newman [7] = test: as above
Procedure, shortened: as §2

B. subtilis 168 [8] = test: as above
Procedure, shortened: as §2
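For Bliss interaction score (quartile over a dose matrix) in this document: first quartile when negative (synergy) and third quartile when positive (antagonism).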

COc1c(N2C[C@@H]3CCCN[C@@H]3C2)c(F)cc2c(=O)c(C(=O)O)cn(C3CC3)c12 [Moxifloxacin] + CN(N=O)C(=O)N[C@@H](C=O)[C@@H](O)[C@H](O)[C@H](O)CO [Streptozotocin]
fitness
Conditions	partner 0.15 µg/mL	partner 0.3 µg/mL	partner 0.6 µg/mL	partner 1.2 µg/mL	partner 2.4 µg/mL	partner 4.8 µg/mL
B. subtilis 168 [4], first compound 0.0312 µg/mL	0.0402	0.04	0.0108	–	–	–
B. subtilis 168 [4], first compound 0.0625 µg/mL	0.0394	0.0297	0.0273	–	–	–
B. subtilis 168 [4], first compound 0.125 µg/mL	0.0412	0.0464	0.0221	–	–	–
S. aureus DSM 20231 [1], first compound 0.0075 µg/mL	0.75	0.715	0.614	–	–	–
S. aureus DSM 20231 [1], first compound 0.015 µg/mL	0.691	0.681	0.59	–	–	–
S. aureus DSM 20231 [1], first compound 0.03 µg/mL	0.611	0.632	0.533	–	–	–
S. aureus Newman [3], first compound 0.0075 µg/mL	0.69	0.635	0.392	–	–	–
S. aureus Newman [3], first compound 0.015 µg/mL	0.453	0.378	0.106	–	–	–
S. aureus Newman [3], first compound 0.03 µg/mL	0.0433	0.0331	0.0187	–	–	–
S. pneumoniae D39V [2], first compound 0.005 µg/mL	–	–	–	0.94	0.951	0.943
S. pneumoniae D39V [2], first compound 0.01 µg/mL	–	–	–	0.951	0.95	0.928
S. pneumoniae D39V [2], first compound 0.02 µg/mL	–	–	–	0.919	0.875	0.895

fitness, one replicate
Conditions	partner 0.15 µg/mL	partner 0.3 µg/mL	partner 0.6 µg/mL	partner 1.2 µg/mL	partner 2.4 µg/mL	partner 4.8 µg/mL
B. subtilis 168 [4], first compound 2 µg/mL	0.0199	0.0131	0	–	–	–
B. subtilis 168 [4], first compound 4 µg/mL	0.0208	0.0015	0.0018	–	–	–
B. subtilis 168 [4], first compound 8 µg/mL	0.0288	0.0107	0.0248	–	–	–
S. aureus DSM 20231 [1], first compound 0.06 µg/mL	0.653	0.639	0.605	–	–	–
S. aureus DSM 20231 [1], first compound 0.12 µg/mL	0.453	0.448	0.391	–	–	–
S. pneumoniae D39V [2], first compound 0.0037 µg/mL	–	–	–	0.978	0.879	0.844
S. pneumoniae D39V [2], first compound 0.0075 µg/mL	–	–	–	0.92	0.922	0.811
S. pneumoniae D39V [2], first compound 0.015 µg/mL	–	–	–	0.878	0.872	0.811

Conditions	Bliss interaction score
B. subtilis 168 [8]	-0.0331
S. aureus DSM 20231 [5]	0.0189
S. aureus Newman [7]	-0.14
S. pneumoniae D39V [6]	0.0634
